According to patent publication US8791132B2, “Compounds and methods for treatment of hypertension” (Medivation Technologies, Inc., priority 2011, dated 2014):
Like-named read-outs stand apart in the source and are kept apart here.

Tests used:
[1] = molecular target: T1, rat adrenergic α1B receptor (Rattus norvegicus, UniProt P15823); assay: Radioligand binding, adrenergic α1B ([3H]Prazosin)
T1 construct: rat adrenergic α1B receptor obtained from Wistar Rat liver; from tissue; host or cells: Wistar rat liver
T1 sequence (P15823 1-515): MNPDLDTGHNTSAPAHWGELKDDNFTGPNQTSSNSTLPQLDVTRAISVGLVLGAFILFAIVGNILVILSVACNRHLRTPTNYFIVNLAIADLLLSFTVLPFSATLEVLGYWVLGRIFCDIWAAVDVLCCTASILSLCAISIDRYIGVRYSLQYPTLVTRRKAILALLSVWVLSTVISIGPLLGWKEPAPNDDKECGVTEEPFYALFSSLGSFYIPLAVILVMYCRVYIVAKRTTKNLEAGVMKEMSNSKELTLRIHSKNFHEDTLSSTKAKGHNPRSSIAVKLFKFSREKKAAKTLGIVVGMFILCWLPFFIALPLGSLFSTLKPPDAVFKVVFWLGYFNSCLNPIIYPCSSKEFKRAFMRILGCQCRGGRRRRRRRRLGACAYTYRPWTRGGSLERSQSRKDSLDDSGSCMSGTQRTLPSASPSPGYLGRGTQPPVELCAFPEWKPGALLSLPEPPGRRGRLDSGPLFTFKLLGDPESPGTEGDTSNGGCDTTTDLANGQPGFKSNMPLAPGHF
In short: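 Incubation ran 60 min at 25 °C in Tris-HCl buffer (50 mM, pH 7.4, 0.5 mM EDTA) with Wistar rat liver α1B receptor. 10 μM phentolamine set non-specific binding.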

[2] = molecular target: T2, human recombinant adrenergic α2A receptor (Homo sapiens, UniProt P08913); assay: Radioligand binding, adrenergic α2A ([3H]MK-912)
T2 construct: expressed in transfected cells; host or cells: insect Sf9 cells
T2 sequence (P08913 1-465): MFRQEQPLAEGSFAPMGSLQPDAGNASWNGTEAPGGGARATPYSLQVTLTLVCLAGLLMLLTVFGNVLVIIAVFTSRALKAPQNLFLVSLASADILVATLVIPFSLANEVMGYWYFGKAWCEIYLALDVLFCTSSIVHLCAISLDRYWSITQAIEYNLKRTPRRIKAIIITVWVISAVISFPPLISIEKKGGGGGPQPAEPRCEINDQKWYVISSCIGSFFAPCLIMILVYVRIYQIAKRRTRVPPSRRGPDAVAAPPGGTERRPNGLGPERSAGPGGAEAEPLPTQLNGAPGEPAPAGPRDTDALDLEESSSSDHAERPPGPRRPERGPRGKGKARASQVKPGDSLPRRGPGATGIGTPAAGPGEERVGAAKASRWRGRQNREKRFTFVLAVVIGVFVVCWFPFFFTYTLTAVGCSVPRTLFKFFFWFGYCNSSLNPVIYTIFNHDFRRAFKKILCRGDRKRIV
In short: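 Sf9-expressed receptor was incubated with compound for 60 min at 25 °C in modified Tris-HCl buffer, pH 7.4. Nonspecific binding was taken as that remaining with 10 μM WB-4101.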

[3] = molecular target: T3, human recombinant adrenergic α2B receptor (Homo sapiens, UniProt P18089); assay: Radioligand binding, adrenergic α2B ([3H]Rauwolscine)
T3 construct: expressed in transfected cells; host or cells: CHO-K1
T3 sequence (P18089 1-450): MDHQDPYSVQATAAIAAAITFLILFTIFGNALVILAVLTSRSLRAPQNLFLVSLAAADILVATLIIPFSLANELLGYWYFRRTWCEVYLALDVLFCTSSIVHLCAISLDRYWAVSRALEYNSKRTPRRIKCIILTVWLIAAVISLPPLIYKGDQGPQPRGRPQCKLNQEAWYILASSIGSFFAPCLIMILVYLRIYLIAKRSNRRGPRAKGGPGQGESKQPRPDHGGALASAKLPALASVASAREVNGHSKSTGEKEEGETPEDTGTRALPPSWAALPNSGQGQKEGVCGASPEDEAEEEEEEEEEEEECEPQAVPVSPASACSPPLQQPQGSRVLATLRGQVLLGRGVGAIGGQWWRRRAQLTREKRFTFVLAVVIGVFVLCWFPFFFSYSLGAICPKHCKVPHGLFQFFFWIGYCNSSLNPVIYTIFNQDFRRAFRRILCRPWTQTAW
In short: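 Readout: percent inhibition of specific [3H]Rauwolscine binding, measured by filtration and counting. Conditions: CHO-K1 cell-expressed receptor, 2.5 nM radioligand, 60 min, 25° C, Tris-HCl pH 7.4 buffer with MgCl2, EDTA, BSA. Non-specific binding: 10 μM Prazosin.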

[4] = 0.1 μM compound, read-out: Percentage inhibition of ligand binding, Adrenergic α1B
[5] = 0.1 μM compound, read-out: Percentage inhibition of ligand binding, Adrenergic α2A
[6] = 0.03 μM compound, read-out: Percentage inhibition of ligand binding, Adrenergic α2B
[7] = read-out: Percentage inhibition of ligand binding, Adrenergic α1B (0.1 μM), compound at 0.1 μM, [3H]Prazosin, repeat datapoints each shown
[8] = read-out: Percentage inhibition of ligand binding, Adrenergic α2B (0.03 μM), compound at 0.03 μM, [3H]Rauwolscine, repeat datapoints each shown

SMILES	inhibition at 0.1 µM [1, 4] [%]	inhibition at 0.1 µM [2, 5] [%]	inhibition at 0.03 µM [3, 6] [%]	other results
Cc1ccc2c(c1)c1c(n2CC(O)c2ccncc2)CCN(CC(=O)O)C1 (stereo not drawn) [II-65, [5-(2-hydroxy-2-pyridin-4-yl-ethyl)-8-methyl-1,3,4,5-tetrahydro-pyrido[4,3-b]indol-2-yl]-acetic acid]	10	12	25	
CN1C2CCC1c1c(n(CC(O)c3ccncc3)c3ccc(Cl)cc13)C2 (stereo not drawn) [II-66]	27	0	46	
CN1CCc2c(c3cc(OC(F)(F)F)ccc3n2CC(O)c2ccncc2)C1 (stereo not drawn) [II-67, 2-(2-methyl-8-trifluoromethoxy-1,2,3,4-tetrahydro-pyrido[4,3-b]indol-5-yl)-1-pyridin-4-yl-ethanol]	7	-11	43	
CN1CCc2c(c3cc(C(C)(C)C)ccc3n2CC(O)c2ccncc2)C1 (stereo not drawn) [II-68, 2-(8-tert-butyl-2-methyl-1,2,3,4-tetrahydro-pyrido[4,3-b]indol-5-yl)-1-pyridin-4-yl-ethanol]	12	5	17	
Cc1ccc2c(c1)c1c(n2CC(O)c2ccncc2)CN2CCC1C2 (stereo not drawn) [II-69]	45	11	14	
CC1c2c(c3cc(Cl)ccc3n2CC(O)c2ccncc2)CCN1C (stereo not drawn) [II-72]	30	25	47	
Cc1ccc2c(c1)c1c(n2CC(O)c2ccncc2)C(C)N(C)CC1 (stereo not drawn) [II-73]	34	28	33	
CCC1c2c(c3cc(C)ccc3n2CC(O)c2ccncc2)CCN1C (stereo not drawn) [II-74]	11	10	18	
Cc1ccc2c(c1)c1c(n2CC(O)c2ccncc2)CCN(CCCO)C1 (stereo not drawn) [II-75, 3-(3,4-dihydro-5-(2-hydroxy-2-(pyridin-4-yl)ethyl)-8-methyl-1H-pyrido[4,3-b]indol-2(5H)-yl)propan-1-ol]	8	15	35	
CN1CCc2c(c3cccnc3n2CC(O)c2ccncc2)C1 (stereo not drawn) [II-78]	-11	1	-9	
OC(Cn1c2c(c3cccnc31)C1CCCN1CC2)c1ccncc1 (stereo not drawn) [II-79]	7	0	59	
Cc1ccc2c(c1)c1c(n2CC(C)(O)c2ccc(O)nc2)CCN(C)C1 (stereo not drawn) [II-80, 5-[2-(2,8-dimethyl-1,2,3,4-tetrahydro-pyrido[4,3-b]indol-5-yl)-1-hydroxy-1-methyl-ethyl]-pyridin-2-ol]	4	3	9	
OCc1ccc2c(c1)c1c(n2CC(O)c2ccncc2)CCNC1 (stereo not drawn) [II-81, 2-(8-hydroxymethyl-1,2,3,4-tetrahydro-pyrido[4,3-b]indol-5-yl)-1-pyridin-4-yl-ethanol]	-1	15	-9	
OC(Cn1c2c(c3ccccc31)C1CCC(C2)N1)c1ccncc1 (stereo not drawn) [II-85]	-7	15	-2	
OC(Cn1c2c(c3cc(Cl)cnc31)CN1CCCC1C2)c1ccncc1 (stereo not drawn) [II-86]	44	27	35	
CN1CCc2c(n(CC(O)c3cccnc3)c3ccc(Cl)cc23)C1 (stereo not drawn) [II-87]	11	1	24	
Cc1ccc2c(c1)c1c(n2CC(O)c2ccc(O)c(O)c2)CCN(C)C1 (stereo not drawn) [II-88, 4-[2-(2,8-dimethyl-1,2,3,4-tetrahydro-pyrido[4,3-b]indol-5-yl)-1-hydroxy-ethyl]-benzene-1,2-diol]	68	-2	48	
OC(Cn1c2c(c3cc(Cl)ccc31)CNCC2)c1cccnc1 (stereo not drawn) [II-89, 2-(8-chloro-1,2,3,4-tetrahydro-pyrido[4,3-b]indol-5-yl)-1-pyridin-3-yl-ethanol]	13	-5	35	
Cc1ccc2c(c1)c1c(n2CC(O)c2ccnc3ccccc23)CCN(C)C1 (stereo not drawn) [II-90, 2-(2,8-dimethyl-3,4-dihydro-1H-pyrido[4,3-b]indol-5(2H)-yl)-1-(quinolin-4-yl)ethanol]	62	19	55	
Cc1ccc2c(c1)c1c(n2CC(O)C2CCCCC2)CCN(C)C1 (stereo not drawn) [II-91]	16	-2	25	
Cc1ccc2c(c1)c1c(n2CC(O)c2ccc(O)nc2)CCN(C)C1 (stereo not drawn) [II-92, 5-(2-(1,2,3,4-tetrahydro-2,8-dimethylpyrido[4,3-b]indol-5-yl)-1-hydroxyethyl)pyridin-2(1H)-one]	13	0	25	
OCCN1CCc2c(c3cc(Cl)ccc3n2CC(O)c2ccncc2)C1 (stereo not drawn) [II-93a]		7		Percentage inhibition of ligand binding, Adrenergic α1B ([1]; 0.1 μM compound): 6%; Percentage inhibition of ligand binding, Adrenergic α2B ([3]; 0.03 μM compound): 24%
Cc1ccc2c(c1)c1c(n2CC(O)c2ccncc2)CCN(CCS(=O)(=O)O)C1 (stereo not drawn) [II-97, 2-(3,4-dihydro-5-(2-hydroxy-2-(pyridin-4-yl)ethyl)-8-methyl-1H-pyrido[4,3-b]indol-2(5H)-yl)ethanesulfonic acid]	-4	4	24	
CN1CCc2c(c3cc(CO)ccc3n2CC(C)(O)c2cccnc2)C1 (stereo not drawn) [II-102]	2	10	49	
CC(O)(Cn1c2c(c3cc(CO)ccc31)CNCC2)c1cccnc1 (stereo not drawn) [II-104]	3	10	21	
Cc1cnc2c(c1)c1c(n2CC(O)c2ccc(C(N)=O)nc2)CCN(C)C1 (stereo not drawn) [II-111, 5-[2-(3,6-dimethyl-5,6,7,8-tetrahydro-1,6,9-triaza-fluoren-9-yl)-1-hydroxy-ethyl]-pyridine-2-carboxylic acid amide]				inhibition at 0.1 µM [1, 7]: 42%; inhibition at 0.1 µM ([2]; read-out: Percentage inhibition of ligand binding, Adrenergic α2A (0.1 μM), compound at 0.1 μM, [3H]MK-912, repeat datapoints each shown): 3%; inhibition at 0.03 µM [3, 8]: 35%
Cc1ccc2c(c1)c1c(n2CC(C)(O)c2cccnc2)C(c2ccccc2)N(C)CC1 (stereo not drawn) [II-112a, 1-(2,6-dimethyl-1-phenyl-1,2,3,4-tetrahydro-β-carbolin-9-yl)-2-pyridin-3-yl-propan-2-ol]				inhibition at 0.1 µM [1, 7]: 5%; Percentage inhibition of ligand binding, Adrenergic α2A (0.1 μM) ([2]; compound at 0.1 μM, [3H]MK-912, repeat datapoints each shown, 0.1 µM): 10%; inhibition at 0.03 µM [3, 8]: 36%
